From patent publication US9260425B2 (Genetech, Inc., priority 2011, dated 2016)

These compounds were tested against Pim-1 (Homo sapiens (Human), UniProt P11309) (assay: Pim kinase binding activity assay (Example 901), PIM-1 enzyme, Caliper microfluidic peptide phosphorylation). Conditions: 20 pM PIM-1, 10 μM ATP, 1 μM FAM-peptide, 90 minutes at room temperature.
Format: biochemical
Protocol: Pim Kinase Binding Activity
A fluorescent-labeled Pim-specific peptide substrate, was custom synthesized by American Peptide Company (Sunnyvale, Calif.). Reaction Buffer contained 10 mM HEPES, pH 7.2, 10 mM MgCl2, 0.01% Tween 20, 2 mM DTT. Termination Buffer contained 190 mM HEPES, pH 7.2, 0.015% Brij-35, 0.2% Coating Reagent 3 (Caliper Life Sciences, Hopkinton, Mass.), 20 mM EDTA. Separation Buffer contained 100 mM HEPES, pH 7.2, 0.015% Brij-35, 0.1% Coating Reagent 3, 1:200 Coating Reagent 8 (Caliper Life Sciences, Hopkinton, Mass.), 10 mM EDTA and 5% DMSO.
PIM reactions were carried out in a final volume of 10 μL per well in a 384-well plate. A standard enzymatic reaction, initiated by the addition of 5 μL 2×ATP and test compound to 5 μL of 2× enzyme and FAM-peptide, contained 20 pM PIM-1, 50 pM PIM-2, or 55 pM PIM-3, 1 μM FAM-peptide, and 10 μM ATP, in Reaction Buffer. After 90 minutes of incubation at room temperature, the phosphorylation reaction was stopped by the addition of 10 μL Termination Buffer. The product and substrate in each independent reaction were separated on a 12-sipper microfluidic chip (Caliper Life Sciences, Hopkinton, Mass.) run on a Caliper LC3000® (Caliper Life Sciences, Hopkinton, Mass.). The separation of product and substrate was optimized by choosing voltages and pressure using Caliper's Optimizer software (Hopkinton, Mass.). […] The product and substrate fluorophore were excited at 488 nm and detected at 530 nm. Substrate conversion was calculated from the electropherogram using HTS Well Analyzer software (Caliper Life Sciences, Hopkinton, Mass.). Ki values for the test compound were calculated.

Chain of Pim-1 (P11309 whole entry): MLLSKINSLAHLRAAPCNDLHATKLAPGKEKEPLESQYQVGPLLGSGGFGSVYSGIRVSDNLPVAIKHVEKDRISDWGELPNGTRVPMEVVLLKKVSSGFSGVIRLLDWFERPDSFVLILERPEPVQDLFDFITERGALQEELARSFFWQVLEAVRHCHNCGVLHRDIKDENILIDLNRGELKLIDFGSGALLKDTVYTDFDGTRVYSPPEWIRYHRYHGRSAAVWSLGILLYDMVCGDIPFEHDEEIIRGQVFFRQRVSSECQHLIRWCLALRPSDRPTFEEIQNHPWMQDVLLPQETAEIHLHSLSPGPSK

Row | Ki | SMILES
1 | 1.71 nM | NCC1CCN(c2cncc(-c3cc4c(-c5ccccc5F)n[nH]c4cn3)c2)CC1 [Example 167, (1-(5-(3-(2-fluorophenyl)-1H-pyrazolo[3,4-c]pyridin-5-yl)pyridin-3-yl)piperidin-4-yl)methanamine]
2 | 1.6 nM | NC[C@H]1CCN(c2cncc(-c3n[nH]c4cnc(-c5cccnc5)cc34)c2)C1 [Example 168, (R)-(1-(5-(5-(pyridin-3-yl)-1H-pyrazolo[3,4-c]pyridin-3-yl)pyridin-3-yl)pyrrolidin-3-yl)methanamine]
3 | 1.35 nM | NC1CCCN(c2cncc(-c3n[nH]c4cnc(-c5cccnc5)cc34)c2)CC1 (stereo not drawn) [Example 169, 1-(5-(5-(pyridin-3-yl)-1H-pyrazolo[3,4-c]pyridin-3-yl)pyridin-3-yl)azepan-4-amine]
4 | 0.443 nM | c1cncc(-c2cc3c(-c4cncc(NC5CCNCC5)c4)n[nH]c3cn2)c1 [Example 170, N-(piperidin-4-yl)-5-(5-(pyridin-3-yl)-1H-pyrazolo[3,4-c]pyridin-3-yl)pyridin-3-amine]
5 | 2.42 nM | Fc1ccccc1-c1n[nH]c2cnc(-c3cncc(NC4CCNCC4)c3)cc12 [Example 171, 5-(3-(2-fluorophenyl)-1H-pyrazolo[3,4-c]pyridin-5-yl)-N-(piperidin-4-yl)pyridin-3-amine]
6 | 3.76 nM | COc1ccc(F)c(-c2n[nH]c3cnc(-c4cnn(C)c4)cc23)c1 [Example 172, 3-(2-fluoro-5-methoxyphenyl)-5-(1-methyl-1H-pyrazol-4-yl)-1H-pyrazolo[3,4-c]pyridine]
7 | 0.086 nM | Cn1cc(-c2cc3c(-c4cccc(N5CCC(N)CC5)n4)n[nH]c3cn2)cn1 [Example 174, 1-(6-(5-(1-methyl-1H-pyrazol-4-yl)-1H-pyrazolo[3,4-c]pyridin-3-yl)pyridin-2-yl)piperidin-4-amine]
8 | 0.3 nM | c1cncc(-c2cc3c(-c4cnn(C5CCNCC5)c4)n[nH]c3cn2)c1 [Example 175, 3-(1-(piperidin-4-yl)-1H-pyrazol-4-yl)-5-(pyridin-3-yl)-1H-pyrazolo[3,4-c]pyridine]
9 | 6.46 nM | c1cncc(-c2cc3c(-c4cccnc4)n[nH]c3cn2)c1 [Example 176, 3,5-di(pyridin-3-yl)-1H-pyrazolo[3,4-c]pyridine]
10 | 17.6 nM | NC(=O)Cn1cc(-c2cc3c(-c4cccc(F)n4)n[nH]c3cn2)cn1 [Example 178, 2-(4-(3-(6-fluoropyridin-2-yl)-1H-pyrazolo[3,4-c]pyridin-5-yl)-1H-pyrazol-1-yl)acetamide]
11 | 0.264 nM | N[C@H]1CCCN(c2cncc(-c3cc4c(-c5ccccc5F)n[nH]c4cn3)c2)C1 [Example 180, (S)-1-(5-(3-(2-fluorophenyl)-1H-pyrazolo[3,4-c]pyridin-5-yl)pyridin-3-yl)piperidin-3-amine]
12 | 3.96 nM | c1cc(-c2n[nH]c3cnc(C4CCCOC4)cc23)nc(N2CCNCC2)c1 (stereo not drawn) [Example 181, 3-(6-(piperazin-1-yl)pyridin-2-yl)-5-(tetrahydro-2H-pyran-3-yl)-1H-pyrazolo[3,4-c]pyridine]
13 | 0.085 nM | Cn1cc(-c2cc3c(-c4cccc(N5CCC(CN)CC5)n4)n[nH]c3cn2)cn1 [Example 182, (1-(6-(5-(1-methyl-1H-pyrazol-4-yl)-1H-pyrazolo[3,4-c]pyridin-3-yl)pyridin-2-yl)piperidin-4-yl)methanamine]
14 | 0.426 nM | Cn1cc(-c2cc3c(-c4cccc(NCC5CCNCC5)n4)n[nH]c3cn2)cn1 [Example 183, 6-(5-(1-methyl-1H-pyrazol-4-yl)-1H-pyrazolo[3,4-c]pyridin-3-yl)-N-(piperidin-4-ylmethyl)pyridin-2-amine]
15 | 0.502 nM | Cn1cc(-c2cc3c(-c4cccc(-c5cnn(C)c5)n4)n[nH]c3cn2)cn1 [Example 184, 5-(1-methyl-1H-pyrazol-4-yl)-3-(6-(1-methyl-1H-pyrazol-4-yl)pyridin-2-yl)-1H-pyrazolo[3,4-c]pyridine]
16 | 70.9 nM | c1ccc(-c2n[nH]c3cnc(-c4ccoc4)cc23)cc1 [Example 185, 5-(furan-3-yl)-3-phenyl-1H-pyrazolo[3,4-c]pyridine]
17 | 0.717 nM | c1cncc(-c2cc3c(-c4cnn(CC5CCNCC5)c4)n[nH]c3cn2)c1 [Example 186, 3-(1-(piperidin-4-ylmethyl)-1H-pyrazol-4-yl)-5-(pyridin-3-yl)-1H-pyrazolo[3,4-c]pyridine]
18 | 0.015 nM | c1cncc(-c2cc3c(-c4cccc(N5CCCNCC5)n4)n[nH]c3cn2)c1 [Example 187, 3-(6-(1,4-diazepan-1-yl)pyridin-2-yl)-5-(pyridin-3-yl)-1H-pyrazolo[3,4-c]pyridine]

Row | Ki | SMILES
19 | 0.136 nM | Cn1cc(-c2cc3c(-c4cccc(N5CC[C@@H](N)C5)n4)n[nH]c3cn2)cn1 [Example 189, (R)-1-(6-(5-(1-methyl-1H-pyrazol-4-yl)-1H-pyrazolo[3,4-c]pyridin-3-yl)pyridin-2-yl)pyrrolidin-3-amine]
20 | 0.404 nM | N[C@@H]1CCCN(c2ccc(-c3n[nH]c4cnc(-c5cccnc5)cc34)cn2)C1 [Example 191, (R)-1-(5-(5-(pyridin-3-yl)-1H-pyrazolo[3,4-c]pyridin-3-yl)pyridin-2-yl)piperidin-3-amine]
21 | 0.511 nM | N[C@@H]1CCN(c2cncc(-c3cc4c(-c5ccccc5F)n[nH]c4cn3)c2)C1 [Example 192, (R)-1-(5-(3-(2-fluorophenyl)-1H-pyrazolo[3,4-c]pyridin-5-yl)pyridin-3-yl)pyrrolidin-3-amine]
22 | 2.63 nM | c1cncc(-c2cc3c(-c4cc[nH]n4)n[nH]c3cn2)c1 [Example 193, 3-(1H-pyrazol-3-yl)-5-(pyridin-3-yl)-1H-pyrazolo[3,4-c]pyridine]
23 | 8.77 nM | c1cncc(-c2cc3c(-c4ccncc4)n[nH]c3cn2)c1 [Example 194, 5-(pyridin-3-yl)-3-(pyridin-4-yl)-1H-pyrazolo[3,4-c]pyridine]
24 | 0.567 nM | Fc1ccccc1-c1n[nH]c2cnc(-c3cnccc3OC3CCNCC3)cc12 [Example 195, 3-(2-fluorophenyl)-5-(4-(piperidin-4-yloxy)pyridin-3-yl)-1H-pyrazolo[3,4-c]pyridine]
25 | 0.774 nM | N[C@H]1CCCN(c2ccc(-c3n[nH]c4cnc(-c5cccnc5)cc34)cn2)C1 [Example 196, (S)-1-(5-(5-(pyridin-3-yl)-1H-pyrazolo[3,4-c]pyridin-3-yl)pyridin-2-yl)piperidin-3-amine]
26 | 0.038 nM | NC1CCCN(c2cccc(-c3n[nH]c4cnc(-c5cccnc5)cc34)n2)CC1 (stereo not drawn) [Example 197, 1-(6-(5-(pyridin-3-yl)-1H-pyrazolo[3,4-c]pyridin-3-yl)pyridin-2-yl)azepan-4-amine]
27 | 3.12 nM | Fc1ccccc1-c1n[nH]c2cnc(-c3cnccc3OC3CNC3)cc12 [Example 198, 5-(4-(azetidin-3-yloxy)pyridin-3-yl)-3-(2-fluorophenyl)-1H-pyrazolo[3,4-c]pyridine]
28 | 0.092 nM | Cn1cc(-c2cc3c(-c4cccc(NC5CCNCC5)n4)n[nH]c3cn2)cn1 [Example 200, 6-(5-(1-methyl-1H-pyrazol-4-yl)-1H-pyrazolo[3,4-c]pyridin-3-yl)-N-(piperidin-4-yl)pyridin-2-amine]
29 | 1 nM | N[C@H]1CCN(c2ccc(-c3n[nH]c4cnc(-c5cccnc5)cc34)cn2)C1 [Example 202, (S)-1-(5-(5-(pyridin-3-yl)-1H-pyrazolo[3,4-c]pyridin-3-yl)pyridin-2-yl)pyrrolidin-3-amine]
30 | 1.02 nM | N[C@@H]1CCN(c2ccc(-c3n[nH]c4cnc(-c5cccnc5)cc34)cn2)C1 [Example 203, (R)-1-(5-(5-(pyridin-3-yl)-1H-pyrazolo[3,4-c]pyridin-3-yl)pyridin-2-yl)pyrrolidin-3-amine]
31 | 11.6 nM | c1ccc(-c2n[nH]c3cnc(-c4cccnc4)cc23)nc1 [Example 204, 3-(pyridin-2-yl)-5-(pyridin-3-yl)-1H-pyrazolo[3,4-c]pyridine]
32 | 6.08 nM | Cc1ccc(F)c(-c2n[nH]c3cnc(-c4cnn(C)c4)cc23)c1 [Example 205, 3-(2-fluoro-5-methylphenyl)-5-(1-methyl-1H-pyrazol-4-yl)-1H-pyrazolo[3,4-c]pyridine]
33 | 0.284 nM | Fc1cncc(-c2cc3c(-c4cccc(N5CCNCC5)n4)n[nH]c3cn2)c1 [Example 208, 5-(5-fluoropyridin-3-yl)-3-(6-(piperazin-1-yl)pyridin-2-yl)-1H-pyrazolo[3,4-c]pyridine]
34 | 0.189 nM | Fc1ccccc1-c1n[nH]c2cnc(-c3cnccc3OC[C@@H]3CCNC3)cc12 [Example 209, (R)-3-(2-fluorophenyl)-5-(4-(pyrrolidin-3-ylmethoxy)pyridin-3-yl)-1H-pyrazolo[3,4-c]pyridine]
35 | 1.28 nM | Fc1ccccc1-c1n[nH]c2cnc(-c3cnccc3OC[C@H]3CCNC3)cc12 [Example 211, (S)-3-(2-fluorophenyl)-5-(4-(pyrrolidin-3-ylmethoxy)pyridin-3-yl)-1H-pyrazolo[3,4-c]pyridine]
36 | 8.48 nM | c1cc(-c2n[nH]c3cnc(C4CCOC4)cc23)nc(N2CCNCC2)c1 (stereo not drawn) [Example 212, 3-(6-(piperazin-1-yl)pyridin-2-yl)-5-(tetrahydrofuran-3-yl)-1H-pyrazolo[3,4-c]pyridine]
